{"source": "patent US20240358829A1", "about": "“Lymphocyte Population and Methods for Producing Same” (AVM Biotechnology, LLC, priority 2021, published 2024)", "key": {"[1]": {"tested_on": "lymphocytes and myeloid cells", "assay": "Humanized mice experiments LYDEP 43 and 45, lymphoid versus myeloid cells (FSC vs SSC)", "format": "in vivo, mouse", "procedure": "Female huNOG-EXL mice (n=6) were obtained from Taconic Bioscience (Germantown, NY). Female huCD34-NCG mice (n=8) were obtained from Charles River (Wilmington, MA). Mice from both facilities were acclimated to laboratory conditions for at least 5-6 days.\nAfter first (03/01/2021) and second dose 1 week later (03/08/2021), when mice reached predetermined time point, they were bled up to 70 μL of blood/mouse via cheek puncture. The blood was analyzed via flow cytometry. After third dose 28 days after the previous dose (on Apr. 5, 2021), when mice reached the study time point, they were euthanized under standard operating procedure summarized here: Mice were anesthetized with isoflurane gas.\nAll flow cytometry was performed in house. Blood, spleen, thymus, and bone marrow were processed via standard staining protocol for flow cytometry. MACSQUANT 16 was used for flow cytometry. Antibody panels slightly varied between first, second and third dose. Markers in the flow panel after first dose analysis included Live/Dead, hCD45, mCD45, hCD56, hTCRgd, hCD3, hCD8, hCD16, hCD19, hCD14. Markers in the flow panel after second dose included all the above, plus hTCRab and hiTCR. In the blood analysis after second dose, 7AAD, CD14 and CD19 were included together in a dump channel. […] For the third dose panel design, when full sac was performed, all markers mentioned above were assigned unique channels to avoid overlap, but TCRab was not included in the final panel due to open channel limitations.\nFor cheek bleeds, 70 ul of blood was collected in EDTA coated microtainer and proceeded for immunostaining. […] Blood was stained for live dead marker for 10 min at Room temperature and then for the surface antibodies mentioned above for 20 minutes at room temperature in dark. RBCs were lysed with BD FACS lysing buffer and washed with DPBS and resuspended in 300 ul DBPS. 250 ul of sample was run on MACSquant 16 flow cytometer."}, "[2]": {"tested_on": "AVM-NKT cells (CD45 dim, CD56 very bright)", "assay": "Flow cytometry of human subjects treated with acute high doses of dexamethasone (Example 7)", "format": "in vivo", "settings": "prostate cancer patient, 6 mg/kg (fourth infusion)"}, "[3]": {"settings": "mouse M88, after a first dose (32 mg/kg)"}}, "note": "Entries after “also recorded” stand apart in the source; their conditions may differ.", "data": [{"molecule": "C[C@@H]1C[C@H]2[C@@H]3CCC4=CC(=O)C=C[C@]4(C)[C@@]3(F)[C@@H](O)C[C@]2(C)[C@@]1(O)C(=O)COP(=O)(O)O", "note": "[AVM0703, dexamethasone sodium phosphate]", "values": [{"measurement": "% of total mouse WBCs that were lymphoid cells, range", "setting": "[1]; AVM0703 treated humanized mice", "value": "2%-20.4%"}, {"measurement": "% of total mouse WBCs that were lymphoid cells, average", "setting": "[1]; AVM0703 treated humanized mice (Placebo 12.7%)", "value": 10.62, "unit": "%"}, {"measurement": "myeloid cell production", "setting": "[1]; humanized mice that largely lack myeloid compartments", "value": "induced myeloid cell production"}, {"measurement": "human lymphocytes, % of total human WBCs", "setting": "[1]; mouse M01, after a first dose", "value": 67, "unit": "%"}, {"measurement": "mouse lymphocytes, % of total WBCs", "setting": "[1]; mouse M01, after a first dose", "value": 6.7, "unit": "%"}, {"measurement": "total lymphocytes, % of total WBCs", "setting": "[1]; mouse M01, after a first dose", "value": 35, "unit": "%"}, {"measurement": "human lymphocytes, % of total human WBCs", "setting": "[1]; mouse M03, after a first dose", "value": 47, "unit": "%"}, {"measurement": "mouse lymphocytes, % of total WBCs", "setting": "[1]; mouse M03, after a first dose", "value": 23.7, "unit": "%"}, {"measurement": "total lymphocytes, % of total WBCs", "setting": "[1]; mouse M03, after a first dose", "value": 40, "unit": "%"}, {"measurement": "human lymphocytes, % of total human WBCs", "setting": "[1]; mouse M05, after a first dose", "value": 50.1, "unit": "%"}, {"measurement": "mouse lymphocytes, % of total WBCs", "setting": "[1]; mouse M05, after a first dose", "value": 2.0, "unit": "%"}, {"measurement": "total lymphocytes, % of total WBCs", "setting": "[1]; mouse M05, after a first dose", "value": 20.9, "unit": "%"}, {"measurement": "human lymphocytes, % of total human WBCs", "setting": "[1]; mouse M07, after a first dose", "value": 58.2, "unit": "%"}, {"measurement": "mouse lymphocytes, % of total WBCs", "setting": "[1]; mouse M07, after a first dose", "value": 20.4, "unit": "%"}, {"measurement": "total lymphocytes, % of total WBCs", "setting": "[1]; mouse M07, after a first dose", "value": 41.9, "unit": "%"}, {"measurement": "human lymphocytes, % of total human WBCs", "setting": "[1]; mouse M10, after a first dose", "value": 37.5, "unit": "%"}, {"measurement": "mouse lymphocytes, % of total WBCs", "setting": "[1]; mouse M10, after a first dose", "value": 5.2, "unit": "%"}, {"measurement": "total lymphocytes, % of total WBCs", "setting": "[1]; mouse M10, after a first dose", "value": 28.1, "unit": "%"}, {"measurement": "human lymphocytes, % of total human WBCs", "setting": "[1]; [3]", "value": 58, "unit": "%"}, {"measurement": "mouse lymphocytes, % of total WBCs", "setting": "[1]; [3]", "value": 5.7, "unit": "%"}, {"measurement": "total lymphocytes, % of total WBCs", "setting": "[1]; [3]", "value": 32, "unit": "%"}, {"measurement": "novel CD45dim CD56 very bright cell population in blood", "setting": "[2]; 1 hour after infusion, 6 mg/kg", "value": "observed; also recorded: evident"}, {"measurement": "novel CD45dim CD56 very bright cell population in blood", "setting": "[2]; 3 hours after infusion", "value": "no longer observed"}]}]}
